From patent publication US3991041A, “(Phe3 -Ala)1 -somatostatin” (American Home Products Corporation, priority 1975, dated 1976)

Tests used:
Assay type in all cases: in vivo, albino male rats
glucagon = test: Nembutal/arginine rat test, blood radioimmunoassayed for glucagon
Experimental: (§1) Nembutal (50 mg/kg) was injected intraperitoneally into each rat. Fifteen minutes later a subcutaneous injection of the test compound, somatostatin (200 μg/kg) and physiological saline (control) was administered separately to each of the three groups of rats. Ten minutes later 0.5 milliliters of arginine (300 mg/ml, pH 7.2) was injected into the rats heart. The rats were decapitated five minutes later and their blood was collected in Trasylol -EDTA. Aliquot samples were radioimmunoassayed for growth hormone, glucagon and insulin. The cyclic heptadecapeptide of this invention, with Trp in the L-configuration and in the form of the C-terminal carboxylic acid, selected as representative of the group of compounds disclosed for test purposes, was employed in two additional distinct test procedures at about 5,000 μg/kg dose levels.

insulin = test: Nembutal/arginine rat test, blood radioimmunoassayed for insulin
Experimental: as §1

growth hormone = test: Nembutal/arginine rat test, blood radioimmunoassayed for growth hormone
Experimental: as §1

Structure (SMILES)	Glucagon (glucagon; dose 200 μg/kg subcutaneous, arginine-stimulated rats, control 17.1±4.8)	Insulin (insulin; dose 200 μg/kg subcutaneous, arginine-stimulated rats, control 243±20)	GH (growth hormone; dose 200 μg/kg subcutaneous, arginine-stimulated rats, control 282±31)	Glucagon (glucagon; dose 1,000 μg/kg subcutaneous, arginine-stimulated rats, control 17.1±4.8)	Glucagon (glucagon; dose 4,660 μg/kg, third test, control 3.7±1.3, * Not Significant)	Glucagon (glucagon; dose 5,000 μg/kg, second test, control 14.0±3)	Insulin (insulin; dose 1,000 μg/kg subcutaneous, arginine-stimulated rats, control 243±20, * Not Significant)	Insulin (insulin; dose 4,660 μg/kg, third test, control 176±1, * Not Significant)	Insulin (insulin; dose 5,000 μg/kg, second test, control 283±37, * Not Significant)	GH (growth hormone; dose 1,000 μg/kg subcutaneous, Nembutal 50 mg/kg i.p., arginine intracardiac 10 min after dose, blood 5 min later, control 282±31)	GH (growth hormone; dose 4,660 μg/kg, third test, control 202±26)	GH (growth hormone; dose 5,000 μg/kg, second test, control 126±25)
C[C@H](N)C(=O)NCC(=O)N[C@H]1CSSC[C@@H](C(=O)O)NC(=O)[C@H](CO)NC(=O)[C@H]([C@@H](C)O)NC(=O)[C@H](Cc2ccccc2)NC(=O)[C@H]([C@@H](C)O)NC(=O)[C@H](CCCCN)NC(=O)[C@H](Cc2c[nH]c3ccccc23)NC(=O)[C@H](Cc2ccccc2)NC(=O)[C@H](Cc2ccccc2)NC(=O)[C@H](CC(N)=O)NC(=O)[C@H](CCCCN)NC1=O [SRIF, somatostatin]	2.0 ± 1.4 pg/mL	136±12 μU/ml	117 ± 6 ng/mL	–	–	–	–	–	–	–	–	–
C[C@H](NC(=O)[C@H](Cc1ccccc1)NC(=O)[C@H](Cc1ccccc1)NC(=O)[C@@H](N)Cc1ccccc1)C(=O)NCC(=O)N[C@H]1CSSC[C@@H](C(=O)O)NC(=O)[C@H](CO)NC(=O)[C@H]([C@@H](C)O)NC(=O)[C@H](Cc2ccccc2)NC(=O)[C@H]([C@@H](C)O)NC(=O)[C@H](CCCCN)NC(=O)[C@H](Cc2c[nH]c3ccccc23)NC(=O)[C@H](Cc2ccccc2)NC(=O)[C@H](Cc2ccccc2)NC(=O)[C@H](CC(N)=O)NC(=O)[C@H](CCCCN)NC1=O [Example 3, L-phenylalanyl-L-phenylalanyl-L-phenylalanyl-L-alanylglycyl-L-cysteinyl-L- lysyl-L-asparaginyl-L-phenylalanyl-L-phenylalanyl-L-tryptophyl-L-lysyl-L-threonyl-L-phenylalanyl-L-threonyl-L-seryl-L-cysteine, (6→17) triacetate]	–	–	–	0.6 ± 0.2 pg/mL	1.1 ± 0.5 pg/mL	6.5 ± 2.3 pg/mL	204±18 μU/ml	165±16 μU/ml	202±37 μU/ml	124 ± 11 ng/mL	97 ± 7 ng/mL	27 ± 2 ng/mL
